Source: patent US20260265305A1, “POLYPEPTIDE DERIVATIVE FOR ORAL DELIVERY” (Hangzhou Sciwind Biosciences Co., Ltd., priority 2023, published 2026)
Values joined by “and” are separate entries in the source; they are usually repeats but may differ in a detail not shown here. Equal values may be shown once. Numbered stars: 1 amine (or outer) side, 2 acyl side, 3 side chain; on linkers, the order of the positions; unused ones are H or OH. Peptide text beside a SMILES is read from it. * marks the point of attachment. C22 diacid = O=C(O)CCCCCCCCCCCCCCCCCCCCC(=O)*; C20 diacid = O=C(O)CCCCCCCCCCCCCCCCCCC(=O)*; C18 diacid = O=C(O)CCCCCCCCCCCCCCCCC(=O)*; γGlu = O=C(O)[C@H](CCC(=O)[*:2])N[*:1]; AEEA = NCCOCCOCC(=O)O

How the values were obtained:
[1] = molecular target: T1, calcitonin receptor (hCTR) (Homo sapiens, UniProt P30988); test: Calcitonin receptor agonism, CRE-luciferase assay in stably transfected CHO-K1/CALCR/Ga15 cells; type: cell-based; settings: incubation of 24 hours; Table 4; read-out: EC50, activity against the calcitonin receptor in cells
T1 construct: host or cells: CHO-K1/CALCR/Ga15 cells, further stably transfected with a CRE-luciferase plasmid
T1 sequence (P30988 25-474): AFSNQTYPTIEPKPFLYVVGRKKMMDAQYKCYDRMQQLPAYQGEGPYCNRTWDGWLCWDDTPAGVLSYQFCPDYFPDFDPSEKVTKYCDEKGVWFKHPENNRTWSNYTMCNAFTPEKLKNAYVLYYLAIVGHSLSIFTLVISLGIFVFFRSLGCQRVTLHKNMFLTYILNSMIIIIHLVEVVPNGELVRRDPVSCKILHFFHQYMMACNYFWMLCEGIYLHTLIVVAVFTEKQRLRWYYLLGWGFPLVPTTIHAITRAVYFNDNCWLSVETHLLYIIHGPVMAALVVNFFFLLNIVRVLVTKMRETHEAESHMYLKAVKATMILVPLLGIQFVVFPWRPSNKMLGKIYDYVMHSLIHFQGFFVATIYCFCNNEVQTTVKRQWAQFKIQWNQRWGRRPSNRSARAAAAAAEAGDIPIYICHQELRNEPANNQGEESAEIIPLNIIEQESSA

[2] = Heat accelerated stability assay of polypeptide solutions (40° C., pH about 7.4), reversed phase chromatography; type: physicochemical; settings: 40° C.; for Concentration change on 7 d / Concentration change on 26 d: pH about 7.4, 1 mg/mL; for Concentration change on 7 d / Purity change on 7 d: Day 7; for Concentration change on 26 d / Purity change on 26 d: Day 26; for Purity change on 7 d / Purity change on 26 d: reversed phase chromatography 214 nm; for Purity change on 7 d: purity on 7 d − purity on 0 d; for Purity change on 26 d: purity on 26 d − purity on 0 d
Description: A stability test chamber (BINDER GmbH), a 0.01 mg-readability balance (METTLER TOLEDO), a pH meter (METTLER TOLEDO), a biosafety cabinet (ESCO), T2G-II small-sized motor-driven capping machine (Changsha zhongya pharmaceutical equipment co. LTD), a high-speed refrigerated centrifuge (Eppendorf), a sterilizer cabinet (Shinva Medical), Agilent 1260 high-performance liquid chromatographer, and Sepax Bio-C18 4.6*250 mm 3 μm 200 Å reversed phase column were used.
Reagents and consumables included: ultrapure water (18.2 MΩ, self-made), acetonitrile (HPLC grade), trifluoroacetic acid (HPLC grade), sodium dihydrogen phosphate (pharmaceutical grade, Hunan Jiudian Hongyang Pharmaceutical Co., Ltd), hydrochloric acid (pharmaceutical grade, Hunan Er-Kang Pharmaceutical Co., Ltd), sodium hydroxide (Analytical Reagent grade, Hushi®, Sinopharm Chemical Reagent Co., Ltd), vials, rubber stoppers, disposable syringes, and sterile filters.
The lyophilized powder (1 mg/mL) of the polypeptide derivative prepared in accordance with the method of Example 1 was mixed with sodium dihydrogen phosphate (1.42 mg/mL) and dissolved in ultrapure water in the indicated mass-volume ratios. After adjusting pH to about 7.4 with hydrochloric acid/sodium hydroxide, the solution was filtered into a sterilized vial in a clean bench using a 0.22 μm sterile filter. The vial was then capped and placed into the stability test chamber at 40° C. Detections were made on Days 7 (7d) and 26 (26d), and during the assay, changes in the characteristics and properties of the polypeptide were observed and recorded. The sample was then centrifuged for 3 min at 10,000 rpm at 4° C., and the supernatant was transferred to a liquid phase sample vial for detecting the concentration and purity of the polypeptides using liquid phase chromatography described as below, wherein the concentration of the polypeptide=peak area/injection volume/extinction coefficient/60×flow rate, and the purity of the polypeptide=target peak area/total peak area×100%.
Conditions of the reversed phase chromatography Flow rate: 1.0 ml/min; Autosampler temperature: 15° C.; Column temperature: 25° C.; Detection wavelengths: 280 nm and 214 nm; Mobile phase A: 100% H2O+0.05% TFA; Mobile phase B: 100% ACN; and Gradient of elution listed in Table 6: […]

amylin receptor (hAMY3R) = molecular target: T2, amylin receptor (hAMY3R) (Homo sapiens, UniProt O60896+P30988); test: Amylin receptor agonism testing, CRE-luciferase assay in stably transfected CHO-K1/Ga15/AMY3 cells; type: cell-based; settings: incubation of 24 hours; Table 3; read-out: EC50, activity against the amylin receptor in cells
T2 construct: host or cells: CHO-K1/Ga15/AMY3 cells, further stably transfected with a CRE-luciferase plasmid
T2 sequence (P30988 25-474): T1 sequence (P30988 25-474)
T2 sequence (O60896 24-148): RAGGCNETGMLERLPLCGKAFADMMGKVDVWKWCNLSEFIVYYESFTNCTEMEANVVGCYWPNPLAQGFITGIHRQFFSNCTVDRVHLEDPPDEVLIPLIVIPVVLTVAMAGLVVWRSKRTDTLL

Compound | EC50 [1] | Purity change on 7 d [2] | Purity change on 26 d [2] | EC50 (amylin receptor (hAMY3R)) | Concentration change on 7 d [2] | Concentration change on 26 d [2]
D2: SEQ ID NO. 5 CSNLSTCVLGKLSQELHKLQTYPRTNTGSGTP-NH2, no modification, no fatty acid [reference compound] | – | – | – | – | −40% and −40.064% | –
M19: SEQ ID NO. 4 ASQLSTAVLGRLSDELHRLQDYPRTDVGSGSP-NH2, N terminus, C20 diacid + γGlu + 4 AEEAs ({C20 diacid-γGlu-AEEA-AEEA-AEEA-AEEA}-ASQLSTAVLGRLSDELHRLQDYPRTDVGSGSP-NH2) | – | No change | nearly no noticeable change in purity | – | – | −1.589%
M20: SEQ ID NO. 4 ASQLSTAVLGRLSDELHRLQDYPRTDVGSGSP-NH2, N terminus, C20 diacid + γGlu + 6 AEEAs ({C20 diacid-γGlu-AEEA-AEEA-AEEA-AEEA-AEEA-AEEA}-ASQLSTAVLGRLSDELHRLQDYPRTDVGSGSP-NH2) | – | No change | −1.59% | – | No change (concentration change of less than 1% (denoted as “no change”)) | −3.662%

Now from value to compound, other results behind:

EC50 [1] | Purity change on 7 d [2] | Purity change on 26 d [2] | EC50 (amylin receptor (hAMY3R)) | Compound | Concentration change on 7 d [2] | Concentration change on 26 d [2]
0.194 nM | No change | nearly no noticeable change in purity | – | CC(C)C[C@H](NC(=O)[C@H](CCCNC(=N)N)NC(=O)CNC(=O)[C@H](CC(C)C)NC(=O)[C@@H](NC(=O)[C@H](C)NC(=O)[C@@H](NC(=O)[C@H](CO)NC(=O)[C@H](CC(C)C)NC(=O)[C@H](CCC(N)=O)NC(=O)[C@H](CO)NC(=O)[C@H](C)NC(=O)CC[C@H](NC(=O)CCCCCCCCCCCCCCCCCCCCC(=O)O)C(=O)O)[C@@H](C)O)C(C)C)C(=O)N[C@@H](CO)C(=O)N[C@@H](CC(=O)O)C(=O)N[C@@H](CCC(=O)O)C(=O)N[C@@H](CC(C)C)C(=O)N[C@@H](Cc1c[nH]cn1)C(=O)N[C@@H](CCCNC(=N)N)C(=O)N[C@@H](CC(C)C)C(=O)N[C@@H](CCC(N)=O)C(=O)N[C@@H](CC(=O)O)C(=O)N[C@@H](Cc1ccc(O)cc1)C(=O)N1CCC[C@H]1C(=O)N[C@@H](CCCNC(=N)N)C(=O)N[C@H](C(=O)N[C@@H](CC(=O)O)C(=O)N[C@H](C(=O)NCC(=O)N[C@@H](CO)C(=O)NCC(=O)N[C@@H](CO)C(=O)N1CCC[C@H]1C(N)=O)C(C)C)[C@@H](C)O [M7] ({C22 diacid-γGlu}-ASQLSTAVLGRLSDELHRLQDYPRTDVGSGSP-NH2) | No change (concentration change of less than 1% (denoted as “no change”)) | No change (concentration change of less than 1% (denoted as “no change”))
– | −1.66% | −5.98% | – | CC(C)C[C@H](NC(=O)[C@H](CCCNC(=N)N)NC(=O)CNC(=O)[C@H](CC(C)C)NC(=O)[C@@H](NC(=O)[C@H](C)NC(=O)[C@@H](NC(=O)[C@H](CO)NC(=O)[C@H](CC(C)C)NC(=O)[C@H](CCC(N)=O)NC(=O)[C@H](CO)NC(=O)[C@H](C)NC(=O)[C@H](CCC(=O)O)NC(=O)CCCCCCCCCCCCCCCCCCC(=O)O)[C@@H](C)O)C(C)C)C(=O)N[C@@H](CO)C(=O)N[C@@H](CC(=O)O)C(=O)N[C@@H](CCC(=O)O)C(=O)N[C@@H](CC(C)C)C(=O)N[C@@H](Cc1c[nH]cn1)C(=O)N[C@@H](CCCNC(=N)N)C(=O)N[C@@H](CC(C)C)C(=O)N[C@@H](CCC(N)=O)C(=O)N[C@@H](CC(=O)O)C(=O)N[C@@H](Cc1ccc(O)cc1)C(=O)N1CCC[C@H]1C(=O)N[C@@H](CCCNC(=N)N)C(=O)N[C@H](C(=O)N[C@@H](CC(=O)O)C(=O)N[C@H](C(=O)NCC(=O)N[C@@H](CO)C(=O)NCC(=O)N[C@@H](CO)C(=O)N1CCC[C@H]1C(N)=O)C(C)C)[C@@H](C)O [M10] ({C20 diacid}-EASQLSTAVLGRLSDELHRLQDYPRTDVGSGSP-NH2) | −2.290% | −10.562%
– | −1.66% | −2.01% | 0.044 nM | CC(C)C[C@H](NC(=O)[C@H](CCCNC(=N)N)NC(=O)CNC(=O)[C@H](CC(C)C)NC(=O)[C@@H](NC(=O)[C@H](C)NC(=O)[C@@H](NC(=O)[C@H](CO)NC(=O)[C@H](CC(C)C)NC(=O)[C@H](CCC(N)=O)NC(=O)[C@H](CO)NC(=O)[C@H](C)NC(=O)COCCOCCNC(=O)COCCOCCNC(=O)COCCOCCNC(=O)COCCOCCNC(=O)COCCOCCNC(=O)COCCOCCNC(=O)COCCOCCNC(=O)COCCOCCNC(=O)CC[C@H](NC(=O)CCCCCCCCCCCCCCCCCCC(=O)O)C(=O)O)[C@@H](C)O)C(C)C)C(=O)N[C@@H](CO)C(=O)N[C@@H](CC(=O)O)C(=O)N[C@@H](CCC(=O)O)C(=O)N[C@@H](CC(C)C)C(=O)N[C@@H](Cc1c[nH]cn1)C(=O)N[C@@H](CCCNC(=N)N)C(=O)N[C@@H](CC(C)C)C(=O)N[C@@H](CCC(N)=O)C(=O)N[C@@H](CC(=O)O)C(=O)N[C@@H](Cc1ccc(O)cc1)C(=O)N1CCC[C@H]1C(=O)N[C@@H](CCCNC(=N)N)C(=O)N[C@H](C(=O)N[C@@H](CC(=O)O)C(=O)N[C@H](C(=O)NCC(=O)N[C@@H](CO)C(=O)NCC(=O)N[C@@H](CO)C(=O)N1CCC[C@H]1C(N)=O)C(C)C)[C@@H](C)O [M21] ({C20 diacid-γGlu-AEEA-AEEA-AEEA-AEEA-AEEA-AEEA-AEEA-AEEA}-ASQLSTAVLGRLSDELHRLQDYPRTDVGSGSP-NH2) | −1.388% | −4.522%
– | 2.59% | −2.19% | 0.015 nM | CC(C)C[C@H](NC(=O)[C@H](CCCNC(=N)N)NC(=O)CNC(=O)[C@H](CC(C)C)NC(=O)[C@@H](NC(=O)[C@H](C)NC(=O)[C@@H](NC(=O)[C@H](CO)NC(=O)[C@H](CC(C)C)NC(=O)[C@H](CCC(N)=O)NC(=O)[C@H](CO)NC(=O)[C@H](C)NC(=O)COCCOCCNC(=O)COCCOCCNC(=O)CC[C@H](NC(=O)CCCCCCCCCCCCCCCCC(=O)O)C(=O)O)[C@@H](C)O)C(C)C)C(=O)N[C@@H](CO)C(=O)N[C@@H](CC(=O)O)C(=O)N[C@@H](CCC(=O)O)C(=O)N[C@@H](CC(C)C)C(=O)N[C@@H](Cc1c[nH]cn1)C(=O)N[C@@H](CCCNC(=N)N)C(=O)N[C@@H](CC(C)C)C(=O)N[C@@H](CCC(N)=O)C(=O)N[C@@H](CC(=O)O)C(=O)N[C@@H](Cc1ccc(O)cc1)C(=O)N1CCC[C@H]1C(=O)N[C@@H](CCCNC(=N)N)C(=O)N[C@H](C(=O)N[C@@H](CC(=O)O)C(=O)N[C@H](C(=O)NCC(=O)N[C@@H](CO)C(=O)NCC(=O)N[C@@H](CO)C(=O)N1CCC[C@H]1C(N)=O)C(C)C)[C@@H](C)O [M22] ({C18 diacid-γGlu-AEEA-AEEA}-ASQLSTAVLGRLSDELHRLQDYPRTDVGSGSP-NH2) | – | −5.493%
– | – | – | 0.033 nM | H-ASQLSTAVLGRLSQELHRLQDYPRTDVGSGSP-NH2 [M5] | – | –
